Source: patent publication US20150105252A1, “SUBSTITUTED PYRAZOLES AS HERBICIDES” (E I DU PONT DE NEMOURS AND COMPANY, priority 2013, published 2015)

Assays:
[1] = tested on: morningglory; test: Test A postemergence; assay type: in vivo, Ipomoea spp.
Method in brief: (§1)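 After sowing in a sand–loam mix, pots received compound preemergence by directed soil spray, or postemergence once plants reached the one- to two-leaf stage (2–10 cm). Formulation contained surfactant in a non-phytotoxic solvent. Injury was scored visually after ~10 greenhouse days, 0–100 scale.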

[2] = tested on: ducksalad; test: Test B flood; assay type: in vivo, Heteranthera limosa; conditions: 250 g ai/ha, visual rating on 0 to 100 scale (0 no effect, 100 complete control), 13 to 15 days
Method in brief: (§2)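 Greenhouse assay lasting 13 to 15 days. Treatment was into water flooding pots 3 cm deep, at the 2-leaf stage, with that level sustained afterwards. Scores compare treated with control plants visually, 100 denoting complete control and 0 no effect; a dash marks no test result.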

[3] = tested on: barnyardgrass; test: Test B flood; assay type: in vivo, Echinochloa crus-galli; conditions: 250 g ai/ha, visual rating on 0 to 100 scale (0 no effect, 100 complete control), 13 to 15 days
Method in brief: as §2

[4] = tested on: sedge, umbrella; test: Test B flood; assay type: in vivo, Cyperus difformis; conditions: 250 g ai/ha, visual rating on 0 to 100 scale (0 no effect, 100 complete control), 13 to 15 days
Method in brief: as §2

[5] = tested on: velvetleaf; test: Test A postemergence; assay type: in vivo, Abutilon theophrasti
Method in brief: as §1

[6] = tested on: crabgrass, large; test: Test A preemergence; assay type: in vivo, Digitaria sanguinalis; conditions: preemergence; for Crabgrass, Large plant response rating (0 to 100 scale): visual injury approx. 10 days after treatment
Method in brief: as §1

[7] = tested on: barnyardgrass; test: Test A postemergence; assay type: in vivo, Echinochloa crus-galli
Method in brief: as §1

[8] = tested on: foxtail, giant; test: Test A postemergence; assay type: in vivo, Setaria faberii
Method in brief: as §1

[9] = tested on: rice; test: Test C flooded paddy test; assay type: in vivo, Oryza sativa; conditions: Flood
Method in brief: (§3)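 Flooded 3 cm over soil; compound into paddy water; depth kept constant. Greenhouse 13–15 d.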

[10] = tested on: morningglory; test: Test A preemergence; assay type: in vivo, Ipomoea spp.; conditions: preemergence; for Morningglory plant response rating (0 to 100 scale): visual injury approx. 10 days after treatment
Method in brief: as §1

[11] = tested on: corn; test: Test A preemergence; assay type: in vivo, Zea mays; conditions: preemergence; for Corn plant response rating (0 to 100 scale): visual injury approx. 10 days after treatment
Method in brief: as §1

[12] = tested on: barnyardgrass; test: Test C flooded paddy test; assay type: in vivo, Echinochloa crus-galli; conditions: Flood
Method in brief: as §3

[13] = tested on: barnyardgrass; test: Test A preemergence; assay type: in vivo, Echinochloa crus-galli; conditions: preemergence
Method in brief: as §1

[14] = tested on: foxtail, giant; test: Test A preemergence; assay type: in vivo, Setaria faberii; conditions: preemergence; for Foxtail, Giant plant response rating (0 to 100 scale): visual injury approx. 10 days after treatment
Method in brief: as §1

[15] = tested on: wheat; test: Test A postemergence; assay type: in vivo, Triticum aestivum
Method in brief: as §1

[16] = tested on: velvetleaf; test: Test A preemergence; assay type: in vivo, Abutilon theophrasti; conditions: preemergence; for Velvetleaf plant response rating (0 to 100 scale): visual injury approx. 10 days after treatment
Method in brief: as §1

[17] = tested on: corn; test: Test A postemergence; assay type: in vivo, Zea mays
Method in brief: as §1

[18] = tested on: crabgrass, large; test: Test A postemergence; assay type: in vivo, Digitaria sanguinalis
Method in brief: as §1

[19] = tested on: rice; test: Test B flood; assay type: in vivo, Oryza sativa; conditions: 250 g ai/ha, visual rating on 0 to 100 scale (0 no effect, 100 complete control), 13 to 15 days
Method in brief: as §2

[20] = tested on: pigweed; test: Test A postemergence; assay type: in vivo, Amaranthus retroflexus
Method in brief: as §1

[21] = tested on: sedge, umbrella; test: Test C flooded paddy test; assay type: in vivo, Cyperus difformis; conditions: Flood
Method in brief: as §3

[22] = tested on: ducksalad; test: Test C flooded paddy test; assay type: in vivo, Heteranthera limosa; conditions: Flood
Method in brief: as §3

[23] = tested on: wheat; test: Test A preemergence; assay type: in vivo, Triticum aestivum; conditions: preemergence; for Wheat plant response rating (0 to 100 scale): visual injury approx. 10 days after treatment
Method in brief: as §1

[24] = tested on: pigweed; test: Test A preemergence; assay type: in vivo, Amaranthus retroflexus; conditions: preemergence; for Pigweed plant response rating (0 to 100 scale): visual injury approx. 10 days after treatment
Method in brief: as §1

[25] = Postemergence, 500 g ai/ha, 0 to 100 scale (0 no effect, 100 complete control)
[26] = postemergence, 125 g ai/ha, about 10 days, visual rating on 0 to 100 scale (0 no effect, 100 complete control)
[27] = 500 g ai/ha, visual injury after approx. 10 days, 0 to 100 scale (0 no effect, 100 complete control)
[28] = 31 g ai/ha, scale 0 to 100 (0 no effect, 100 complete control)
[29] = 62 g ai/ha, scale 0 to 100 (0 no effect, 100 complete control)
[30] = 125 g ai/ha, visual injury, 0 to 100 scale, approx. 10 days
[31] = Postemergence, 500 g ai/ha, visual rating after approx. 10 days, 0 to 100 scale (0 no effect, 100 complete control)

CCc1cc(C(=O)NC(C)C)nn1Cc1ccnc(OCC(F)(F)F)c1 [Compound 149]
20: Wheat plant response rating [15, 26] | Velvetleaf plant response rating (0 to 100 scale) ([16]; 125 g ai/ha)
40: Corn plant response rating [17, 26] | Crabgrass, Large plant response rating [18, 26]
90: Velvetleaf plant response rating [5, 25] | Velvetleaf plant response rating [16, 27] | Crabgrass, Large plant response rating [18, 25] | Pigweed plant response rating [20, 26]
95: Plant response rating, Ducksalad [2] | Plant response rating, Sedge, Umbrella [4]
60: Morningglory plant response rating [1, 26] | Barnyardgrass plant response rating [13, 27] | Wheat plant response rating [15, 25] | Plant response rating, Sedge, Umbrella [21, 28]
0: Plant response rating, Rice [9, 28] | Plant response rating, Rice [9, 29] | Plant response rating, Rice ([9]; 125 g ai/ha, scale 0 to 100) | Corn plant response rating (0 to 100 scale) ([11]; 125 g ai/ha) | Plant response rating, Barnyardgrass [12, 28] | Plant response rating, Barnyardgrass [12, 29] | Plant response rating, Barnyardgrass ([12]; 125 g ai/ha, scale 0 to 100) | Plant response rating, Ducksalad [22, 28] | Wheat plant response rating (0 to 100 scale) ([23]; 125 g ai/ha)
55: Plant response rating, Ducksalad [22, 29]
10: Morningglory plant response rating (0 to 100 scale) ([10]; 125 g ai/ha) | Barnyardgrass plant response rating [13, 30] | Plant response rating, Rice [19]
100: Morningglory plant response rating [1, 25] | Crabgrass, Large plant response rating (0 to 100 scale) ([6]; 125 g ai/ha) | Crabgrass, Large plant response rating [6, 27] | Morningglory plant response rating [10, 27] | Foxtail, Giant plant response rating [14, 27] | Pigweed plant response rating [20, 25] | Pigweed plant response rating [24, 27]
80: Barnyardgrass plant response rating [7, 25] | Foxtail, Giant plant response rating [8, 25] | Corn plant response rating [17, 25] | Plant response rating, Sedge, Umbrella ([21]; 125 g ai/ha, scale 0 to 100) | Pigweed plant response rating (0 to 100 scale) ([24]; 125 g ai/ha)
50: Wheat plant response rating [23, 27]
30: Plant response rating, Barnyardgrass [3] | Velvetleaf plant response rating [5, 26] | Barnyardgrass plant response rating [7, 26] | Corn plant response rating [11, 27]
70: Foxtail, Giant plant response rating [8, 26] | Foxtail, Giant plant response rating (0 to 100 scale) ([14]; 125 g ai/ha) | Plant response rating, Sedge, Umbrella [21, 29] | Plant response rating, Ducksalad ([22]; 125 g ai/ha, scale 0 to 100)

CCCCc1cc(C(=O)NOCC)nn1Cc1ccnc(C(F)(F)F)c1 [Compound 152]
40: Morningglory plant response rating [1, 26] | Crabgrass, Large plant response rating (0 to 100 scale) ([6]; 125 g ai/ha) | Foxtail, Giant plant response rating [8, 25]
80: Crabgrass, Large plant response rating [6, 27] | Pigweed plant response rating [20, 25]
60: Morningglory plant response rating [1, 25] | Velvetleaf plant response rating [5, 25] | Barnyardgrass plant response rating [13, 27] | Foxtail, Giant plant response rating [14, 27] | Crabgrass, Large plant response rating [18, 25] | Pigweed plant response rating [20, 26]
20: Velvetleaf plant response rating [5, 26] | Morningglory plant response rating [10, 27] | Velvetleaf plant response rating [16, 27]
100: Pigweed plant response rating (0 to 100 scale) ([24]; 125 g ai/ha) | Pigweed plant response rating [24, 27]
10: Barnyardgrass plant response rating [7, 26] | Foxtail, Giant plant response rating [8, 26] | Foxtail, Giant plant response rating (0 to 100 scale) ([14]; 125 g ai/ha) | Corn plant response rating [17, 26] | Crabgrass, Large plant response rating [18, 26]
0: Plant response rating, Ducksalad [2] | Plant response rating, Barnyardgrass [3] | Plant response rating, Sedge, Umbrella [4] | Morningglory plant response rating (0 to 100 scale) ([10]; 125 g ai/ha) | Corn plant response rating (0 to 100 scale) ([11]; 125 g ai/ha) | Corn plant response rating [11, 27] | Barnyardgrass plant response rating [13, 30] | Wheat plant response rating [15, 25] | Wheat plant response rating [15, 26] | Velvetleaf plant response rating (0 to 100 scale) ([16]; 125 g ai/ha) | Plant response rating, Rice [19] | Wheat plant response rating (0 to 100 scale) ([23]; 125 g ai/ha) | Wheat plant response rating [23, 27]
50: Barnyardgrass plant response rating [7, 25]
30: Corn plant response rating [17, 25]

CCCNC(=O)c1cc(CC)n(Cc2cccc(C(F)(F)F)n2)n1 [Compound 88]
10: Morningglory plant response rating [1, 31] | Morningglory plant response rating [1, 26] | Velvetleaf plant response rating [5, 31] | Morningglory plant response rating [10, 27] | Corn plant response rating [17, 31] | Crabgrass, Large plant response rating [18, 31] | Pigweed plant response rating [20, 31]
0: Plant response rating, Ducksalad [2] | Plant response rating, Barnyardgrass [3] | Plant response rating, Sedge, Umbrella [4] | Velvetleaf plant response rating [5, 26] | Crabgrass, Large plant response rating [6, 30] | Barnyardgrass plant response rating ([7]; Postemergence, 125 g ai/ha, 0 to 100 scale, 0 no effect, 100 complete control) | Barnyardgrass plant response rating [7, 31] | Foxtail, Giant plant response rating [8, 31] | Foxtail, Giant plant response rating [8, 26] | Morningglory plant response rating [10, 30] | Corn plant response rating [11, 30] | Corn plant response rating [11, 27] | Barnyardgrass plant response rating [13, 30] | Barnyardgrass plant response rating [13, 27] | Foxtail, Giant plant response rating [14, 30] | Foxtail, Giant plant response rating [14, 27] | Wheat plant response rating [15, 31] | Wheat plant response rating [15, 26] | Velvetleaf plant response rating [16, 30] | Velvetleaf plant response rating [16, 27] | Corn plant response rating [17, 26] | Crabgrass, Large plant response rating [18, 26] | Plant response rating, Rice [19] | Pigweed plant response rating [20, 26] | Wheat plant response rating [23, 30] | Wheat plant response rating [23, 27] | Pigweed plant response rating [24, 30] | Pigweed plant response rating [24, 27]
30: Crabgrass, Large plant response rating [6, 27]

CCCNC(=O)c1cc(CC)n(Cc2cc(C(F)(F)F)nn2CC)n1 [Compound 117]
10: Corn plant response rating [11, 27]
80: Velvetleaf plant response rating [5, 31] | Barnyardgrass plant response rating [7, 31] | Barnyardgrass plant response rating [13, 27] | Crabgrass, Large plant response rating [18, 31] | Pigweed plant response rating [20, 31]
30: Morningglory plant response rating [10, 30] | Barnyardgrass plant response rating [13, 30]
90: Morningglory plant response rating [1, 31] | Crabgrass, Large plant response rating [6, 30] | Foxtail, Giant plant response rating [8, 31] | Pigweed plant response rating [24, 30]
60: Morningglory plant response rating [1, 26]
75: Plant response rating, Sedge, Umbrella [4]
0: Plant response rating, Barnyardgrass [3] | Corn plant response rating [11, 30] | Wheat plant response rating [15, 31] | Wheat plant response rating [15, 26] | Velvetleaf plant response rating [16, 30] | Velvetleaf plant response rating [16, 27] | Wheat plant response rating [23, 30] | Wheat plant response rating [23, 27]
40: Velvetleaf plant response rating [5, 26] | Barnyardgrass plant response rating [7, 26]
20: Foxtail, Giant plant response rating [8, 26] | Corn plant response rating [17, 26] | Crabgrass, Large plant response rating [18, 26] | Plant response rating, Rice [19]
70: Foxtail, Giant plant response rating [14, 30]
100: Crabgrass, Large plant response rating [6, 27] | Morningglory plant response rating [10, 27] | Foxtail, Giant plant response rating [14, 27] | Pigweed plant response rating [24, 27]
50: Plant response rating, Ducksalad [2] | Corn plant response rating [17, 31] | Pigweed plant response rating [20, 26]
